# Starred links: 1 amine or outer side, 2 acyl side, 3 side chain; linkers in the order of their positions; H or OH if unused. Residues, ends and D or L forms follow the SMILES beside them. Groups on a side chain read outwards from the residue. *: point of attachment. Glutaryl = O=C(CCCC(=O)[*:2])[*:1]; X1 = CCCC/C=C\CCCCCCCC=NN*
# Assays:
# [1] = tested on: mice; assay: In vivo FLuc mRNA delivery, i.m. injection, bioluminescence imaging
# Procedure: In vivo bioluminescence imaging (BLI) enables localization and quantification of expression following mRNA delivery in living animals.
# The inventors evaluated the mRNA delivery efficiency of amphiphile by i.m. injections of an amphiphile-complexed FLuc mRNA in anesthetized mice using BLI. Amphiphilic molecule stock solutions were prepared in DMSO as described above and diluted in a suitable buffer, such as PBS, or phosphate buffer enriched with inorganic salts. The solutions of mRNA/amphiphile complexes were freshly prepared prior to in vivo experiments. Amphiphile solutions in a suitable buffer, such as PBS, or phosphate buffer enriched with inorganic salts, were mixed with mRNA solutions in a suitable buffer, such as PBS, or phosphate buffer enriched with inorganic salts (1:1 volume ratio, final amount of mRNA per mice=5 μg/mouse). The mixture was shaken for 30 min at room temperature before injection. For each mouse, 5 μg mRNA was complexed with the best candidates obtained from the in vitro experiments, 7.3(Leu-His) with myristoleyl aldehyde (7.3(Leu-His) M) (FIG. 7) or with palmitoleyl aldehyde (7.3(Leu-His) PA) (FIG. 8), and administered by i.m. injection in the right flank in 50 μL of a suitable buffer, such as PBS, or phosphate buffer enriched with inorganic salts. As control, 5 μg of naked mRNA was injected in three mice. Luciferase expression was evaluated over 48 h, starting at 1 h after the administration of mRNA complexes. […] In contrast, i.m. injections of naked mRNA afforded only low levels of luciferase expression, as measured by photon flux, in all mice. The experiment was performed in, at least, triplicates (3 mice per condition).
# After obtaining the conditions providing the highest expression, a second round of i.m. delivery of FLuc mRNA was performed to further optimize the formulation of the complexes. […]
# [2] = tested on: Ai14 mice; assay: In vivo gene editing by Cre mRNA delivery, tdTomato fluorescence; settings: i.v.; 7 μg Cre mRNA; 1:1 and 5:1 mass ratio amphiphile:mRNA; 2 days
# Procedure: In vivo gene editing enables localization and quantification of expression following Cre recombinase mRNA delivery in Ai14 mice, a reporter strain that expresses tdTomato fluorescence after Cre-mediated recombination.
# The inventors evaluated the mRNA delivery efficiency of amphiphile by i.v. injections of an amphiphile-complexed Cre recombinase mRNA (CleanCap® Cre mRNA (5moU), TriLink, L-7211) in Ai14 mice. Amphiphilic molecule stock solutions were prepared in DMSO as described above. The solutions of mRNA/amphiphile complexes were freshly prepared prior to in vivo experiments. Amphiphile solutions in DMSO were mixed with mRNA solutions in a suitable buffer, such as PBS, or phosphate buffer enriched with inorganic salts (1:1 and 5:1 mass ratio, final amount of mRNA per mice=7 μg/mouse). The mixture was shaken for 30 min at room temperature before injection. For each mouse, 7 μg mRNA was complexed with 7.3(Leu-His) with myristoleyl aldehyde (7.3(Leu-His) M), and administered by i.v. injection in the tail vein in 100 μL of a suitable buffer, such as PBS, or phosphate buffer enriched with inorganic salts. As control, 7 μg of naked mRNA was injected in three mice. After 2 days, mice were sacrificed and were imaged to confirm tdTomato expression.
smiles,measurement,setting,value
CCCC/C=C\CCCCCCCC=NNC(=O)CCCC(=O)NCCCC[C@H](NC(=O)[C@H](CCCCNC(=O)CCCC(=O)NN=CCCCCCCC/C=C\CCCC)NC(=O)[C@H](CCCNC(=N)N)NC(=O)[C@H](Cc1c[nH]cn1)NC(=O)[C@H](CCCCNC(=O)CCCC(=O)NN=CCCCCCCC/C=C\CCCC)NC(=O)[C@H](CCCNC(=N)N)NC(C)=O)C(=O)N[C@@H](Cc1c[nH]cn1)C(N)=O [7.3(Leu-His) M] (Ac-RK([Glutaryl-X1])HRK([Glutaryl-X1])K([Glutaryl-X1])H-NH2),conditions giving highest bioluminescence (FLuc expression),"[1]; 2.5 μM amphiphile, 1.25, 3 or 5 μg/mouse FLuc mRNA",achieved with the complexes formed by 2.5 μM amphiphile and 5 μg/mouse of FLuc mRNA
same,luciferase activity at the site of injection,[1]; 5 μg FLuc mRNA,High levels of luciferase activity
same,time of peak luciferase expression,"[1]; 5 μg FLuc mRNA, all concentrations tested (2.5, 5, 10 μM)",7 h
same,tdTomato expression in organs,[2],"expression of tdTomato protein was observed preferably in spleen and lungs, being more intense when using 5:1 mass ratio amphiphile:mRNA"

# Reference: US20250304623A1, “PEPTIDES FOR INTRACELLULAR DELIVERY” (UNIVERSIDADE DE SANTIAGO DE COMPOSTELA, priority 2022, published 2025)
